Laboratory results taken from patent US20090311217A1, “3-SUBSTITUTED-1H-INDOLE COMPOUNDS, THEIR USE AS MTOR KINASE AND PI3 KINASE INHIBITORS, AND THEIR SYNTHESES” (priority 2008, published 2009).

The compounds below were run against PI3K-alpha (Homo sapiens, UniProt P42336) (assay: PI3K-alpha fluorescence polarization assay). Conditions: PI3Kα Avg. IC50.
Format: biochemical

PI3K-alpha, sequence (P42336 whole entry, species assumed): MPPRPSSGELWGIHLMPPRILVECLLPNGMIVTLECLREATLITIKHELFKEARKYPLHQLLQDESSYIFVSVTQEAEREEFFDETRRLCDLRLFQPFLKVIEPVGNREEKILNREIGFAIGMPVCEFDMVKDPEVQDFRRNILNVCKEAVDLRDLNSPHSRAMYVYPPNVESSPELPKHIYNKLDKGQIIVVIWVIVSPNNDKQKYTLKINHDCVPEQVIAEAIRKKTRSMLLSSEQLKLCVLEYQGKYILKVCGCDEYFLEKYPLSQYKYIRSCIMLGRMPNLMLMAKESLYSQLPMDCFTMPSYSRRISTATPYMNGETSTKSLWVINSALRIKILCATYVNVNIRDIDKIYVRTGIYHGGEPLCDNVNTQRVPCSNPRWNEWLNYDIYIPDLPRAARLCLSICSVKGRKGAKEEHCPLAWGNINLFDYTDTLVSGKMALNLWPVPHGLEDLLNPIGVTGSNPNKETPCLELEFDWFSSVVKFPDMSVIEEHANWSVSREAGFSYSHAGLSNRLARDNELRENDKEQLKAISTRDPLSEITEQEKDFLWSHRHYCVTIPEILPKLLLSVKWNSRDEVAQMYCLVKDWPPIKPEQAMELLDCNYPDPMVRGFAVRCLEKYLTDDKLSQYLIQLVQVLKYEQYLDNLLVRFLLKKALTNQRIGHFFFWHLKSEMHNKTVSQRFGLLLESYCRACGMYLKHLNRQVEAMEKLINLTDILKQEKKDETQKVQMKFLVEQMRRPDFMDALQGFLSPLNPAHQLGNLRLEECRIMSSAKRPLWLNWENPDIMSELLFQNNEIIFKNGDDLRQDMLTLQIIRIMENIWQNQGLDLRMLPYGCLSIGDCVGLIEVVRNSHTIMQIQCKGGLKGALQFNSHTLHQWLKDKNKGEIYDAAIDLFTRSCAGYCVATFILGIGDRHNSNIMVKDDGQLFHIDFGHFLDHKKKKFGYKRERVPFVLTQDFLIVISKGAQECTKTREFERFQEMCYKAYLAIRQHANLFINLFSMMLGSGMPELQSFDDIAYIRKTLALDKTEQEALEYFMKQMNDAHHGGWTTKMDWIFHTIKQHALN
PI3K-alpha, sequence (P27986 whole entry partner, species assumed): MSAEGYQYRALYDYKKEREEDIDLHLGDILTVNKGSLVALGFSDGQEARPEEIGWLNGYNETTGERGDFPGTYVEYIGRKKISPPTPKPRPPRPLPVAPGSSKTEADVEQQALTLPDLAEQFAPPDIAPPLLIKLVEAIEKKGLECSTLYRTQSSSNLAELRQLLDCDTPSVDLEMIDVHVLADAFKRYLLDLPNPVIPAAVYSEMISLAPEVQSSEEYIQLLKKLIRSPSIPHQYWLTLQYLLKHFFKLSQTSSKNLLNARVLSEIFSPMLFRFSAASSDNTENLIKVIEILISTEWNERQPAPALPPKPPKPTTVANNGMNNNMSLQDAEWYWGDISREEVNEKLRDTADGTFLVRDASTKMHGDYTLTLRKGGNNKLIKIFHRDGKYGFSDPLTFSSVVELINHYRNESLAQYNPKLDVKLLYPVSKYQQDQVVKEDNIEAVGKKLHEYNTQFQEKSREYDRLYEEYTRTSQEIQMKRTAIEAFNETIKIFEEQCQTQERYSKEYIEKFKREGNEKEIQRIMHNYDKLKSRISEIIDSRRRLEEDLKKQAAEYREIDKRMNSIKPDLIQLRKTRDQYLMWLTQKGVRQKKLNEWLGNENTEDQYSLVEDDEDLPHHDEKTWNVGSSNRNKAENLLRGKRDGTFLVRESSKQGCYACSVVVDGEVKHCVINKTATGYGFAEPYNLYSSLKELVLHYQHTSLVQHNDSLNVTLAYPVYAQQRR

Row | Compound | IC50 [nM]
1 | CNC(=O)Oc1ccc2c(c1)C(=O)/C(=C/c1cn(CCN3CCN(C)CC3)c3ccc(OC)cc13)O2 [Compound 546, (2Z)-2-({5-methoxy-1-[2-(4-methylpiperazin-1-yl)ethyl]-1H-indol-3-yl}methylene)-3-oxo-2,3-dihydro-1-benzofuran-5-yl methylcarbamate] | 630
2 | COc1ccc2c(c1)c(/C=C1\Oc3cc(OC(=O)N(C)c4ccccc4)ccc3C1=O)c(C)n2CCN1CCN(C)CC1 [Compound 558, (2Z)-2-({5-methoxy-2-methyl-1-[2-(4-methylpiperazin-1-yl)ethyl]-1H-indol-3-yl}methylene)-3-oxo-2,3-dihydro-1-benzofuran-6-yl methyl(phenyl)carbamate] | > 10000

Same assay, conditions: read-out: PI3Kα Avg. IC50

Row | Compound | IC50 [nM]
3 | Cc1cccc2c1c(/C=C1\Oc3cc(O)cc(O)c3C1=O)c(-c1ccccn1)n2C [Compound 477, (2Z)-2-[(1,4-dimethyl-2-pyridin-2-yl-1H-indol-3-yl)methylene]-4,6-dihydroxy-1-benzofuran-3(2H)-one] | 1120
4 | COc1cc(-c2ccncc2)c2c(c1)c(/C=C1\Oc3cc(O)ccc3C1=O)cn2CCCC#N [Compound 500, 4-{3-[(Z)-(6-hydroxy-3-oxo-1-benzofuran-2(3H)-ylidene)methyl]-5-methoxy-7-pyridin-4-yl-1H-indol-1-yl}butanenitrile] | 589
5 | COc1ccc2c(c1)c(/C=C1\Oc3ccc(Br)cc3C1=O)cn2CCCN(C)C [Compound 516, (2Z)-5-bromo-2-({1-[3-(dimethylamino)propyl]-5-methoxy-1H-indol-3-yl}methylene)-1-benzofuran-3(2H)-one] | 9750
6 | CN(c1ccccc1)c1cccc2c1c(/C=C1\Oc3cc(O)cc(O)c3C1=O)cn2C [Compound 542, (2Z)-4,6-dihydroxy-2-({1-methyl-4-[methyl(phenyl)amino]-1H-indol-3-yl}methylene)-1-benzofuran-3(2H)-one] | 359
7 | O=C1C(=Cc2c[nH]c3ccccc23)Oc2ccccc21 [Example 1, 2-(1H-indol-3-ylmethylene)-1-benzofuran-3(2H)-one] | > 10000
8 | Cn1c(-c2ccccc2)c(C=C2Oc3cc(O)ccc3C2=O)c2ccccc21 [Example 7, 6-hydroxy-2-[(1-methyl-2-phenyl-1H-indol-3-yl)methylene]-1-benzofuran-3(2H)-one] | > 10000
9 | COc1cccc2c1OC(=Cc1c[nH]c3ccccc13)C2=O [Example 9, 2-(1H-indol-3-ylmethylene)-7-methoxy-1-benzofuran-3(2H)-one] | > 10000
10 | COc1cccc2c1OC(=Cc1c(-c3ccccc3)[nH]c3ccccc13)C2=O [Example 10, 7-methoxy-2-[(2-phenyl-1H-indol-3-yl)methylene]-1-benzofuran-3(2H)-one] | > 10000
11 | COc1cccc2c1OC(=Cc1c(-c3ccccc3)n(C)c3ccccc13)C2=O [Example 11, 7-methoxy-2-[(1-methyl-2-phenyl-1H-indol-3-yl)methylene]-1-benzofuran-3(2H)-one] | > 10000
12 | COc1cccc2c1OC(=Cc1cn(C)c3ccccc13)C2=O [Example 12, 7-methoxy-2-[(1-methyl-1H-indol-3-yl)methylene]-1-benzofuran-3(2H)-one] | > 10000
13 | O=C1/C(=C/c2c(-c3ccc(Cl)cc3)[nH]c3ccccc23)Oc2ccccc21 [Example 17, (2Z)-2-{[2-(4-chlorophenyl)-1H-indol-3-yl]methylene}-1-benzofuran-3(2H)-one] | 2490
14 | O=C1/C(=C/c2c(-c3ccc4ccccc4c3)[nH]c3ccccc23)Oc2ccccc21 [Example 18, (2Z)-2-{[2-(2-naphthyl)-1H-indol-3-yl]methylene}-1-benzofuran-3(2H)-one] | 2550
15 | O=C1/C(=C/c2c(-c3ccc(F)cc3)[nH]c3ccccc23)Oc2ccccc21 [Example 19, (2Z)-2-{[2-(4-fluorophenyl)-1H-indol-3-yl]methylene}-1-benzofuran-3(2H)-one] | 1980
16 | Cc1[nH]c2ccc([N+](=O)[O-])cc2c1/C=C1\Oc2ccccc2C1=O [Example 20, (2Z)-2-[(2-methyl-5-nitro-1H-indol-3-yl)methylene]-1-benzofuran-3(2H)-one] | > 10000
